Positions of bridges follow the written chain, without caps; N, C: chain ends. Non-standard residues stand in square brackets, D forms with d. Residues, ends and D or L forms follow the SMILES beside them. No end group written: not given here.
How the values were obtained:
[1] = test system: MCP-1 induced human monocyte migration; experiment: Human monocyte migration, MCP-1; type: cell-based; conditions: n.s. = no statistically significant inhibition
Protocol: (§1) Agents may also be screened in a chemotactic assay which employs human neutrophils, eosinophils, mast cells, basophils, platelets, lymphocytes or monocytes. For monocytes, 9 mls of fresh blood are transferred to a tube containing 1 ml of 3.8% sodium citrate, and left at room temperature for 15 minutes. Five mls of this anti-coagulated blood are carefully layered over 3.5 ml Polymorphprep® (Nycomed Pharma, Oslo), and centrifuged at 500 g for 35 minutes per the manufacturer's instructions. The top band at the sample/medium interface contains monocytes. The monocytes are carefully removed with a glass pipette, and reconstituted to the original volume (5 ml). The cells are washed with PBS plus 10% fetal calf serum, and centrifuged at 400 g for 10 minutes. The washing step is repeated three times before the cells are counted. Cells are resuspended at 1×10^7 cells/ml in RPMI-1640+10% fetal calf serum (FCS). The monocytes are cultured for two days at 37° C. in a humidified atmosphere of 5% CO2.
On day 2, the cells are counted, spun down, and reconstituted to 1×10^7 cells/ml in Gey's balanced salt solution+1 mg/ml bovine serum albumin (BSA). Chemotaxis is induced in a 48 or 96-well disposable chemotaxis chamber fitted with a 5-8 μm polycarbonate filter for monocytes, neutrophils or eosinophils, or a 3 μm filter for lymphocytes (Uguccioni et al, Eur. J. Immunol., 25, 64 (1995); Loetscher et al., J. Exy. Med., 184, 569 (1996); Weber et al., J. Immunol., 4166 (1995)) (PVP free, ChemoTX, Neuroprobe Inc., Cabin John, Md.). Twenty-nine μl of chemoattractant or control are added to the lower compartment of each well. The framed filter is aligned with the holes in the corner of the filter frame and placed over the wells. Two and one-half×10^5 monocytes in 25 μl of Gey's balanced salt solution+1 mg/ml BSA are added to the upper compartment. The agent is dissolved in MilliQ water and then serially diluted in the Gey's balanced salt solution. In most cases, the serially diluted agent is added to the upper compartment of the chemotaxis chamber. […]

[2] = test system: TGFβ1 induced human monocyte migration; experiment: Human monocyte migration, TGFβ1; type: cell-based; conditions: n.s. = no statistically significant inhibition
Protocol: as §1
On day 2, the cells are counted, spun down, and reconstituted to 1×10^7 cells/ml in Gey's balanced salt solution+1 mg/ml bovine serum albumin (BSA). […]

HIV (MN) = experiment: HIV infectivity of THP-1 cells, p24gag immunofluorescence; type: cell-based; conditions: 100 μM peptide, HIV strain MN, 72 hours
Protocol: (a) HIV (IIIb) replication in cultures of Jurkat T-cells was estimated by measuring the supernatant reverse transcriptase activity two weeks after infection. Peptide 2 and peptide 3 were at 100 μM final concentration and SDF-1α was added at 100 ng/ml final concentration 1 hour prior to exposure to virus. Values are mean±SEM from 12 wells, expressed as the percentage of the reverse transcriptase activity in the supernatant from the control wells. The experiment shown is typical of six separate experiments. (b) HIV (IIIb) infectivity of Jurkat T-cells was estimated by staining cells treated identically to those in (a) for p24^gag expression. Values are mean±S.D. percentage of cells stained for p24gag averaged from 12 fields of view from each of two separate wells. (c) HIV (MN) infectivity of THP-1 cells measured as in (b). MIP-1α was used at 100 ng/ml final concentration. (d) Immunofluorescence micrographs of THP-1 cells 48 hours after exposure to HIV (MN) in the absence (top panel) or presence (lower panel) of 100 μM peptide 3, stained for p24^gag. Several cells in the upper panel, but not the lower panel, show strong, punctuate staining for p24^gag antigen. Both fields of view contain 40-50 cells (assessed by Hoeschst 33345 staining viewed under UV illumination conditions).
Jurkat cells following HIV infection were attached to 8-well chamber slides (Becton-Dickinson) by spinning the slides using a plate rotor in a Labofuge centrifuge (Haeraeus) at 3,000×g for 5 minutes. Attached Jurkat cells or THP-1 cells were then fixed by dipping the slides into ice-cold 70% ethanol for 90 seconds. […] A threshold was then applied to each image which was the lowest threshold that detected <1% of the pixels of an image of uninfected cells stained under identical conditions. The number of objects exceeding this threshold in each field of view were counted. This process, for example, detected 9 objects in the field of view shown in the upper panel of FIG. 54D and 1 object in the field of view shown in the lower panel. […]

CC[C@@H](C)[C@H]1NC(=O)[C@@H](CCC(N)=O)NC(=O)[C@H](N)CSSC[C@H](C(N)=O)NC(=O)[C@@H](CC(C)C)NC(=O)[C@@H](CC(=O)O)NC(=O)[C@H]2CCCN2C(=O)[C@@H](CCCCN)NC(=O)[C@@H](CCC(N)=O)NC(=O)[C@@H](CCCCN)NC(=O)[C@@H](Cc2c[nH]c3ccccc23)NC1=O (H-[dC][dQ][dI][dW][dK][dQ][dK][dP][dD][dL][dC]-NH2; disulfide 1-11; N-terminus assumed)
serum TNF-α in LPS treated mice, in words (LPS-induced serum TNF-α; i.v. loading dose and s.c. bolus 30 minutes before 583 μg LPS i.p.): dose dependent decrease

C=CCCCCCCCCC(=O)N[C@H]1CCC(=O)NC1=O [A-I (NR58.4), [3S]-3-(undec-10-enoylamino)piperidine-2,6-dione]
local tolerance at the site of injection (LPS-induced serum TNF-α; mouse, in vivo, sc): irritation was noted at the site of injection

EICADPKQKWVQ [peptide 3(1-12)[MCP-1]]
% inhibition at 100 μM versus MCP-1, human monocyte migration [1]: 108%
% inhibition at 100 μM versus TGFβ1, human monocyte migration [2]: n.s.
inhibition of HIV infectivity of THP-1 cells, p24gag staining (HIV (MN)): more than 80%
inhibition of HIV infectivity of THP-1 cells, p24gag staining (HIV (MN); listed as second peptide, spanning amino acids 51 to 62 of human MCP-1): 83±7%

SYRRITSSKCPKEAV [peptide 2(1-15)[MCP-1]]
% inhibition at 100 μM versus MCP-1, human monocyte migration [1]: 20%
% inhibition at 100 μM versus MCP-1, human monocyte migration ([1]; listed as Peptide 2 (SEQ ID NO: 3)): 23%
% inhibition at 100 μM versus TGFβ1, human monocyte migration [2]: n.s.
inhibition of HIV infectivity of THP-1 cells, p24gag staining (HIV (MN)): 28±5%

— US7989466B2, “Methods to inhibit or augment an inflammatory response” (Cambridge Enterprise Limited, priority 1999, dated 2011)
